Data as given in patent US20110263478A1, “SUR1 INHIBITORS FOR THERAPY” (priority 2008, published 2011).

Legend:
[1] = system: rats with spinal cord injury (SCI); settings: rodent model of SCI (Simard et al., 2007); cited from earlier work
[2] = system: rats with spinal cord injury (SCI); test: Rat cervical SCI model: neurobehavioral assessment (inclined plane, paw placement, rearing); format: in vivo
Description: SCI injury model. This study was performed in accordance with the guidelines of the Institutional Animal Care and Use Committee. Adult female Long-Evans rats (275-350 gm) were anesthetized (Ketamine, 60 mg/kg plus Xylazine, 7.5 mg/kg, i.p.). The dura at C4-5 was exposed via a left hemilaminectomy. A hemi-cervical spinal cord contusion was created using a blunt force impactor (1.3-mm impactor head driven by a 10 gm weight dropped vertically 25 mm) (Soblo sky et al., 2001; Gensel et al., 2006). After SCI, animals were given 10 ml of glucose-free normal saline s.q. Rectal temperature was maintained at ˜37° C. using a servo-controlled warming blanket.
For in vivo gene suppression of SUR1, we used oligodeoxynucleotides that were phosphorothioated at 4 distal bonds to protect against endogenous nucleases (35).
Neurobehavioral assessment. All measurements were performed by blinded evaluators. Performance on the inclined plane was evaluated as described (Rivlin and Tator, 1977). To assess paw placement and vertical exploration (rearing) (Nikulina et al., 2004) animals were videotaped while in a translucent cylinder (19×20 cm). Rearing was quantified as the number of seconds spent with both front paws elevated above shoulder-height during a 3-min period of observation.

rats with percussion-TBI [3] = test: Percussion-TBI rats: extravasated blood (progressive secondary hemorrhage); format: in vivo, rat
From the text: (§1) Young adult male Long-Evans rats, 240-280 gm, were studied. Rats were anesthetized (Ketamine and Xylazine) and physiological parameters including temperature and blood gases were maintained within appropriate physiological ranges. With the head fixed in a stereotaxic frame, a 6-mm circular craniectomy was created abutting the sagittal and lambdoidal sutures. A posterior location was chosen to emphasize damage to underlying hippocampus (Vink et al., 2001; Floyd et al., 2002). […] Sham controls underwent craniectomy without percussion.

rats with percussion-TBI [4] = test: Percussion-TBI rats: lesion size and hippocampal histology; format: in vivo, rat; settings: 7 days post-TBI
From the text: as §1

[5] = cited from earlier work
[6] = male, Long-Evans, rat, in vivo
From the text: as §1

[7] = system: rats with subarachnoid hemorrhage (SAH); test: Rat SAH model: immunohistochemistry of inferomedial cortex and posterior cerebral artery; format: in vivo; settings: 24 hr after SAH
Description: Model of SAH. All surgical procedures were approved by the Institutional Animal Care and Use Committee of the University of Maryland. […] Fasted male Wistar rats (225-275 gm; Harlan, Indianapolis, Ind.) were anesthetized (ketamine, 60 mg/kg and xylazine, 7.5 mg/kg, intraperitoneally) and allowed to ventilate air spontaneously. Temperature was maintained at 37° C. using a heating pad regulated by a rectal temperature sensor (Harvard Apparatus, Holliston, M A). The laser Doppler flowmetry (LDF) probe (MoorLab, Moore Instruments, Sussex, UK) was affixed to the skull. The right carotid sheath was exposed through a ventral midline incision, the common, external and internal carotid arteries (CCA, ECA, ICA) were dissected, and the pterygopalatine artery was ligated. Typical blood gases (i-STAT, Heska Corp, Fort Collins, Colo.), sampled from the CCA before injury, were pO2>90 mm Hg, pCO2<47 mm Hg, and glucose 150-200 mg/dl.
The model of SAH involved a single endovascular puncture of the ICA using a 4-0 filament sharpened at its tip, followed by reperfusion of the ICA (Schwartz et al. 2000). With temporary clips on the CCA and ICA, the ECA was divided proximal to the ligature, the 4-0 nylon filament was introduced through the stump of the ECA into the ICA, arterial puncture was produced at ˜19 mm under LDF monitoring, the filament was withdrawn, the ECA stump was ligated and flow was restored to the CCA/ICA. Unlike the widely used method in which a 3-0 filament is used to produce severe hemorrhage associated with high mortality, the method used here utilizing a 4-0 filament produced mild-tomoderate SAH associated with low mortality. We monitored rCBF using LDF to confirm the sharp drop after puncture and filament withdrawal, and to assure the full recovery in rCBF within 10-15 min of restoration of flow in the ICA, making ischemic injury less likely than in versions of the model in which the CCA is ligated.
Controls received the same volume of vehicle in the same way. […] The osmotic mini-pumps delivered 0.5 μl/hr, yielding infusion doses of 200 ng/hr.
Rats were euthanized 24 hr after induction of SAH. In some cases, fresh tissues were collected for immunoblot. In other cases, animals underwent perfusion fixation for immunohistochemistry or in situ hybridization.
Immunohistochemistry. Cryosections (10 μm) were post-fixed with 4% formaldehyde and immunolabeled using standard techniques. After permeabilizing (0.3% Triton X-100 for 10 min), sections were blocked (2% donkey serum for 1 hr; Sigma D-9663), then incubated with primary antibody directed against: SUR1 (1:200; SC-5789; Santa Cruz Biotechnology); NeuN (1:100; MAB377; Chemicon, CA); GFAP (1:500; CY3 conjugated; C-9205; Sigma, St. Louis, Mo.); vonWillebrand factor (1:200; F3520, Sigma); TNFα (1:100; Santa Cruz); p65 (1:100; Santa Cruz); FITC-conjugated IgG (1:200; Santa Cruz); ZO-1 (1:100; Zymed Laboratories). Fluorescent-labeled, species appropriate secondary antibodies (Molecular Probes, OR) were used for visualization. Omission of primary antibody and competition with antigenic peptides, when available, were used as negative controls. Fluorescent signals were visualized using epifluorescence microscopy (Nikon Eclipse E1000).
For quantitative immunohistochemistry, all sections were immunolabeled as a single batch, as previously described (Gerzanich et al. 2003). All images were collected using uniform parameters of magnification and exposure. Segmentation analysis was performed by computing a histogram of the pixel intensity for equal regions of interest (ROI) using IP Lab software, with the ROI confined to the 400 μm of parenchymal tissue dorsal to the pia of the inferomedial cortex ipsilateral to the SAH. For IgG, the overall pixel intensity of the ROI was determined and the background was subtracted. […]

[8] = 1, 3 and 7 d post-SCI, vs vehicle

**Q.** What does the source list for `COc1ccc(Cl)cc1C(=O)NCCc1ccc(S(=O)(=O)NC(=O)NC2CCCCC2)cc1` [glibenclamide]?
**A.** reduction in lesion volume after SCI [1]: 3 fold; performance on inclined plane [2, 8]: significantly better performance; vertical exploratory behavior (rearing) [2, 8]: significantly better performance; vertical exploration (rearing), time during 3-min observation ([2]; 1 d post-SCI, 200 ng/h s.q.): 42 ± 7 s; ipsilateral paw placement ([2]; 1 d post-SCI, vs vehicle): significantly better performance; general mobility ([2]; post-SCI, vs vehicle-treated rats generally not mobile): typically ambulatory and often exhibited proficient exploratory behavior; extravasated blood at later times (rats with percussion-TBI [3]; 6 and 24 hr post-TBI, vs vehicle): prevented further increases in blood; volume of blood in brain homogenate (rats with percussion-TBI [3]; ½ hr post-TBI): did not affect; hippocampus on Nissl stained sections (rats with percussion-TBI [4]): sparing of hippocampus, including sparing of neurons in CA1, CA3 and dentate gyrus regions; lesion area on coronal sections at epicenter of injury (rats with percussion-TBI [4]; control 8.2±1.3, P=0.025): 4.4±0.8 mm^2; pKa [5]: 6.3; time required to achieve 90% steady-state serum drug levels [6]: 3 h; protein (IgG) endocytosis by neurons [7]: essentially absent; caspase-3 activation in the PCA ([7]; 5 rats): absent in ⅘ rats and was minimal in the fifth; ZO-1 localization in PCA endothelium ([7]; vs vehicle): significantly reduced cytoplasmic localization and restored intercellular localization; caspase-3 activation in parenchymal tissues ([7]; vs vehicle): significantly reduced; local inflammation (TNFα, p65 immunolabeling) ([7]; vs vehicle): significantly reduced; reactive astrocytosis (GFAP immunolabeling) ([7]; vs vehicle): significantly reduced
